Consider two molecules from US10316371B2, “Screening methods for identifying specific Staphylococcus aureus inhibitors” (TRANA DISCOVERY, INC., priority 2011, dated 2019).

≈ marks a conversion by molar mass, not a printed value.

In assay [1] the test system is S. aureus specific Arg ASL (anticodon stem loop) RNA oligomer interaction with programmed ribosomes. The experiment in a line: Fluorescence polarization assay of Arg ASL / programmed ribosome complex (HTS and dose response). The class given is binding, S. aureus Arg ASL; E. coli 70S ribosomes. The following applies: 6 pt dose response, fluorescence polarization after 4 hours at 25° C., corrected for auto-fluorescence; read-out: IC50. (In general: Polarisation of emitted light reports the rotation of a fluorescent probe.)

Another assay deals with E. faecalis 161651. The experiment in a line: MIC. The class given is cell-based. Particulars: Enterococcus faecalis; E. faecalis 161651; read-out: MIC. Here is the method:
(§1) The compounds were re-tested against other bacteria, including Staphylococcus epidermidis (ATCC 35984), Staphylococcus epidermidis (MRSE), E. faecium 134529, E. faecium 145494, […], E. faecium 161651, S. pneumoniae 49619, and S. pneumoniae 149389.
(§2) A series of compounds were evaluated for their activity against drug resistant S. aureus, including MSSA and MRSA strains.

The test system of the next assay is E. faecalis 29212. The experiment in a line: MIC. In kind it is cell-based. The following applies: Enterococcus faecalis; E. faecalis 29212; read-out: MIC. On the procedure: as §1, §2
A further assay relates to E. faecium 134529. The experiment in a line: MIC. The class given is cell-based. Particulars: Enterococcus faecium; E. faecium 134529; read-out: MIC. On the procedure:
as §1, §2

In another assay the test system is E. faecium 145494. The experiment in a line: MIC. The class given is cell-based. The following applies: Enterococcus faecium; E. faecium 145494; read-out: MIC. On the procedure:
as §1, §2

A further assay deals with S. epidermidis 35984. The experiment in a line: MIC. Particulars: Staphylococcus epidermidis; S. epidermidis 35984; read-out: MIC. The class given is cell-based. On the procedure:
as §1, §2

In another assay the test system is S. epidermidis MRSE 01. The experiment in a line: MIC. The following applies: Staphylococcus epidermidis; S. epidermidis MRSE 01; read-out: MIC. In kind it is cell-based. Here is the method: as §1, §2
In a further assay the test system is S. pneumoniae 149389. The experiment in a line: MIC. In kind it is cell-based. Particulars: Streptococcus pneumoniae; S. pneumoniae 149389; read-out: MIC. On the procedure:
as §1, §2

A further assay concerns S. pneumoniae 49619. The experiment in a line: MIC. In kind it is cell-based. The following applies: Streptococcus pneumoniae; S. pneumoniae 49619; read-out: MIC. Here is the method:
as §1, §2

By IC50 is commonly meant the point on the concentration scale where inhibition reaches its midpoint. As a reminder, the MIC is the least concentration at which growth counts as inhibited. As to `Cc1ccc2nc(-c3ccc(NC(=O)CN4CCN(CCO)CC4)cc3)sc2c1` [Compound #169, 2-[4-(2-hydroxyethyl)-1-piperazinyl]-N-[4-(6-methyl-1,3-benzothiazol-2-yl)phenyl]acetamide], the half-inhibitory concentration (IC50) in assay [1] stood at 69.3 µM. Besides, the MIC in the assay on E. faecalis 161651 was 16 µg/mL (≈ 39 µM); in the assay with E. faecalis 29212 it was 64 µg/mL (≈ 156 µM); in the assay with E. faecium 134529 it was 16 µg/mL (≈ 39 µM); in the assay on E. faecium 145494, 16 µg/mL (≈ 39 µM); in the assay with S. epidermidis 35984, 16 µg/mL (≈ 39 µM); with S. epidermidis MRSE 01 it was 16 µg/mL (≈ 39 µM). Also, the MIC with S. pneumoniae 149389 was 128 µg/mL (≈ 312 µM); with S. pneumoniae 49619, 64 µg/mL (≈ 156 µM).
As for `Brc1ccc(-c2nc(N3CCNCC3)c3ccccc3n2)cc1` [Compound #880, 2-(4-bromophenyl)-4-(1-piperazinyl)-quinazoline], the IC50 in assay [1] stood at 19.9 µM. Further, the MIC in the assay with E. faecalis 161651 came out at 8 µg/mL (≈ 21.7 µM); in the assay on E. faecalis 29212, 8 µg/mL (≈ 21.7 µM); in the assay with E. faecium 134529, 8 µg/mL (≈ 21.7 µM); in the assay with E. faecium 145494, 4 µg/mL (≈ 10.8 µM); in the assay on S. epidermidis 35984, 8 µg/mL (≈ 21.7 µM); with S. epidermidis MRSE 01 it was 8 µg/mL (≈ 21.7 µM). Further, the MIC in the assay with S. pneumoniae 149389 and with S. pneumoniae 49619 was 32 µg/mL (≈ 86.7 µM) each time.
